Holding throughout (assay type): in vivo
For test [1], the system named is Mycosphaerella graminicola; anamorph: Septoria tritici; Bayer code SEPTTR. Nature of the test: Leaf Blotch of Wheat fungicidal activity. To be noted: for pest or weed control at 100 ppm: Zymoseptoria tritici. The method, then: (§1) For the following examples, 5-fluorocytosine or a 5-fluorocytosine derivative was either dissolved in acetone or water, and dilutions were performed to obtain desirable rates. The spray solutions contained either 0.01% triton X-100 or 0.1% Trycol 5941. For high-volume spray, plants were sprayed to run-off using an automated booth sprayer. For a low-volume test, fungicide was applied using a track sprayer with application volume of 200 liters/hectare (L/H).
(§2) Plants were inoculated with fungal pathogens either 3 days before compound application (3-day curative test; 3DC) or 1 day after compound application (1-day protectant test; 1DP).
• 1. Evaluation of Fungicidal Activity: Leaf Blotch of Wheat (Mycosphaerella graminicola; anamorph: Septoria tritici; Bayer code SEPTTR):
Wheat plants (variety Yuma) were grown from seed in a greenhouse in 50% mineral soil/50% soil-less Metro mix until the first leaf was fully emerged, with 7-10 seedlings per pot. These plants were inoculated with an aqueous spore suspension of Septoria tritici either prior to or after fungicide treatments. After inoculation the plants were kept in 100% relative humidity (one day in a dark dew chamber followed by two to three days in a lighted dew chamber) to permit spores to germinate and infect the leaf. The plants were then transferred to a greenhouse for disease to develop. • 2. Evaluation of Fungicidal Activity: Glume Blotch of Wheat (Leptosphaeria nodorum; Bayer code LEPTNO; anamorph: Stagonospora nodorum):
(§3) The following tables present the activity of 5-fluorocytosine (Table I) or a 5-fluorocytosine derivative (Table II) when evaluated in these experiments. The effectiveness of 5-fluorocytosine or 5-fluorocytosine derivative in controlling disease was determined by assessing the severity of disease on treated plants, then converting the severity to percent control based on the level of disease on untreated, inoculated plants. • In each case of Tables I and II the rating scale is as follows: […]

The subject of test [2] is Venturia inaequalis; Bayer code VENTIN. Nature of the test: Apple Scab fungicidal activity. The note with it: 75 ppm.
Test [3] concerns Leptosphaeria nodorum; Bayer code LEPTNO; anamorph: Stagonospora nodorum. Nature of the test: Glume Blotch of Wheat fungicidal activity. The note with it: 100 ppm. The method, then:
as §1, §2
Wheat plants (variety Yuma) were grown from seed in a greenhouse in 50% mineral soil/50% soil-less Metro mix until the first leaf was fully emerged, with 7-10 seedlings per pot. […]
as §3

Test [4] concerns Glomerella lagenarium; anamorph: Colletotrichum lagenarium; Bayer code COLLLA. Nature of the test: Cucumber Anthracnose fungicidal activity. The note with it: 200 ppm, 1DP (1-day protectant).
Test [5] has as its system Cercospora beticola; Bayer code CERCBE. Nature of the test: Leaf Spot of Sugar Beets fungicidal activity. The note with it: 100 ppm, 1DP (1-day protectant).
Test [6] has as its system Cochliobolus sativum; Bayer code COCHSA; anamorph: Helminthosporium sativum. Nature of the test: Spot Blotch of Barley fungicidal activity. The note with it: 200 ppm, 1DP (1-day protectant). On the procedure:
For the following examples, 5-fluorocytosine or a 5-fluorocytosine derivative was either dissolved in acetone or water, and dilutions were performed to obtain desirable rates. The spray solutions contained either 0.01% triton X-100 or 0.1% Trycol 5941. For high-volume spray, plants were sprayed to run-off using an automated booth sprayer. For a low-volume test, fungicide was applied using a track sprayer with application volume of 200 liters/hectare (L/H). Plants were inoculated with fungal pathogens either 3 days before compound application (3-day curative test; 3DC) or 1 day after compound application (1-day protectant test; 1DP). […] Evaluation of Fungicidal Activity: Leaf Spot of Sugar Beets (Cercospora beticola; Bayer code CERCBE): The following tables present the activity of 5-fluorocytosine (Table I) or a 5-fluorocytosine derivative (Table II) when evaluated in these experiments. The effectiveness of 5-fluorocytosine or 5-fluorocytosine derivative in controlling disease was determined by assessing the severity of disease on treated plants, then converting the severity to percent control based on the level of disease on untreated, inoculated plants. • In each case of Tables I and II the rating scale is as follows: […]

Test [7] relates to Mycosphaerella fijiensis; BAYER code MYCOFI. Nature of the test: Black Sigatoka Disease of Banana fungicidal activity. The method, then:
as §1
Plants were inoculated with fungal pathogens either 3 days before compound application (3-day curative test; 3DC) or 1 day after compound application (1-day protectant test; 1DP). […]
Efficacy against Mycosphaerella fijiensis was tested using newly emerged leaves of field grown banana plants. […] The leaves were subsequently allowed to become infected by natural inoculum, and were visually assessed for percent disease control ˜40-45 days later.
as §3

[8] abbreviates: 24 h, SEPTTR, wheat, 100 ppm, One-Day Protectant (1DP), % disease control rating, read-out: SEPTTR 100 PPM 1DP.
[9] abbreviates: 72 h, SEPTTR, wheat, 100 ppm, Three-Day Curative (3DC), % disease control rating, read-out: SEPTTR 100 PPM 3DC.
Where [10] appears, read: 24 h, read-out: SEPTTR 100 PPM 1DP.
[11] abbreviates: 72 h, read-out: SEPTTR 100 PPM 3DC.

The record followed here is patent publication US20140296065A1, “USE OF 5-FLUOROCYTOSINE AS A FUNGICIDE” (DOW AGROSCIENCES LLC, priority 2008, published 2014).

Like-named read-outs stand apart in the source and are kept apart here.

In the case of `O=C(Nc1nc(O)ncc1F)c1cccc(Br)c1` [Cmpd 23], the figures for the pest or weed control at 100 ppm in test [1] (setting [8]) and in test [1] (setting [9]) were 26 to 50% and 0 to 25%, respectively.
On to `CC(C)COC(=O)Nc1nc(O)ncc1F` [Cmpd 7], for which the pest or weed control at 100 ppm in test [1] (setting [8]) and in test [1] (setting [9]) was 51 to 75% in each case.
As for `COC(=O)Nc1nc(O)ncc1F` [Cmpd 14], the pest or weed control at 100 ppm in test [1] (setting [8]) was 26 to 50%; in test [1] (setting [9]), 0 to 25%.
Regarding `COc1ccccc1C(=O)Nc1nc(O)ncc1F` [Cmpd 22], the pest or weed control at 100 ppm in test [1] (setting [8]) and in test [1] (setting [9]) was 0 to 25% each time.
In the case of `O=C(Nc1nc(O)ncc1F)c1ccccc1Cl` [Cmpd 24], the pest or weed control at 100 ppm in test [1] (setting [8]) and in test [1] (setting [9]) was 26 to 50% in each case.
`CCCCCC(=O)Nc1nc(O)ncc1F` [Cmpd 8]: the pest or weed control at 100 ppm in test [1] (setting [8]) and in test [1] (setting [9]) was 76 to 100% each time.
With `COc1cccc(C(=O)Nc2nc(O)ncc2F)c1` [Cmpd 21], the pest or weed control at 100 ppm in test [1] (setting [8]) and in test [1] (setting [9]) was 0 to 25% each time.
In the case of `Nc1nc(=O)[nH]cc1F` [5-FC, 5-Fluorocytosine], the “% Disease Control of 5-FC” value is given as “A (76-100)” in test [2] (1DP (1-day protectant)); “A (76-100)” in test [2] (3DC (3-day curative)); “D (0-25)” in test [3] (1DP (1-day protectant)); “C (26-50)” in test [3] (3DC (3-day curative)); “A (76-100)” in test [1] (SEPTTR, wheat, 100 ppm, 3DC (3-day curative)); “A (76-100)” in test [1] (SEPTTR, wheat, 200 ppm, 1DP (1-day protectant)). The “% Disease Control of 5-FC” value is listed as “A (76-100)” in test [4]; “A (76-100)” in test [5]; “C (26-50)” in test [6]; “B (51-75)” in test [7] (100 ppm, 3DC (3-day curative)); “B (51-75)” in test [7] (200 ppm, 1DP (1-day protectant)).
In the case of `O=C(Nc1nc(O)ncc1F)c1ccc(Cl)cc1` [Cmpd 6], the pest or weed control at 100 ppm in test [1] (setting [8]) was in the range of 76 to 100%; in test [1] (setting [9]) it was 26 to 50%.
For `CNc1nc(O)ncc1F` [Cmpd 18], the pest or weed control at 100 ppm fell in the range of 0 to 25% in test [1] (setting [8]) and 51 to 75% in test [1] (setting [9]).
In the case of `O=C(Nc1nc(O)ncc1F)c1ccccc1` [Cmpd 12], the pest or weed control at 100 ppm in test [1] (setting [8]) and in test [1] (setting [9]) was 76 to 100% in each case.
Regarding `O=C(Nc1nc(O)ncc1F)Oc1ccccc1` [Cmpd 16], the pest or weed control at 100 ppm in test [1] (setting [10]) and in test [1] (setting [11]) was 76 to 100% each time.
With `CC(C)(C)C(=O)Nc1nc(O)ncc1F` [Cmpd 4], the pest or weed control at 100 ppm in test [1] (setting [8]) and in test [1] (setting [9]) was 76 to 100% each time.
Regarding `CC(C)C(=O)Nc1nc(O)ncc1F` [Cmpd 13], the pest or weed control at 100 ppm in test [1] (setting [8]) and in test [1] (setting [9]) was 76 to 100% in each case.
On to `CC(=O)Nc1nc(O)ncc1F` [Cmpd 2], for which the pest or weed control at 100 ppm in test [1] (setting [8]) and in test [1] (setting [9]) was 76 to 100% in each case.
`Cc1ccc(OC(=O)Nc2nc(O)ncc2F)cc1` [Cmpd 15]: the pest or weed control at 100 ppm in test [1] (setting [10]) lay in the range of 76 to 100%; in test [1] (setting [11]) it was 51 to 75%.
For the compound `CCCCCCCCCCCC(=O)Nc1nc(O)ncc1F` [Cmpd 9], the results for the pest or weed control at 100 ppm in test [1] (setting [8]) and in test [1] (setting [9]) were 76 to 100% and 26 to 50%, respectively.
`CCC(=O)Nc1nc(O)ncc1F` [Cmpd 3]: the pest or weed control at 100 ppm in test [1] (setting [8]) and in test [1] (setting [9]) was 76 to 100% throughout.
In the case of `CCCCCOC(=O)Nc1nc(O)ncc1F` [Cmpd 19], the pest or weed control at 100 ppm in test [1] (setting [8]) and in test [1] (setting [9]) was 0 to 25% each time.
Turning to `CCCC(=O)Nc1nc(O)ncc1F` [Cmpd 11], the pest or weed control at 100 ppm in test [1] (setting [8]) and in test [1] (setting [9]) was 76 to 100% in each case.
With `COc1ccc(C(=O)Nc2nc(O)ncc2F)cc1` [Cmpd 20], the pest or weed control at 100 ppm in test [1] (setting [8]) and in test [1] (setting [9]) was 0 to 25% throughout.
For `Cc1ccc(C(=O)Nc2nc(O)ncc2F)cc1` [Cmpd 5], the pest or weed control at 100 ppm is 76 to 100% in test [1] (setting [8]) and 51 to 75% in test [1] (setting [9]).
On to `CCONc1nc(O)ncc1F` [Cmpd 17], for which the pest or weed control at 100 ppm in test [1] (setting [8]) fell in the range of 26 to 50%; in test [1] (setting [9]), 76 to 100%.
For the compound `CCC(CC)C(=O)Nc1nc(O)ncc1F` [Cmpd 10], the pest or weed control at 100 ppm in test [1] (setting [8]) was 26 to 50%; in test [1] (setting [9]), 0 to 25%.
